The text below walks through data of US5256820A, “1-alkyl-2-acyl-1,2-disulfonylhydrazines” (Yale University, priority 1991, dated 1993).

Each structure is given as a SMILES string. Entries after “also recorded” stand apart in the source; their conditions may differ.

For data set [1] the following is noted: Shyam et al. J. Med. Chem. (1990) 33:2259-2264; cited from earlier work.
The next data set concerns L1210 leukemia. The data set can be described thus: Survival time of mice bearing the L1210 leukemia. It is filed as in vivo, mouse. As to conditions: for antineoplastic activity / curative effect (in words): L1210 leukemia mice; for % 60-day survivors / % T/C (average survival time of treated/control mice × 100) / AvΔ wt % (average percent change in body weight from onset to termination of therapy): at opt. effective daily dose; for % T/C (average survival time of treated/control mice × 100): 60-day survivors not included; for AvΔ wt % (average percent change in body weight from onset to termination of therapy): vehicle control +2.0; for Opt. effective daily dose: once daily for six consecutive days, beginning 24 h after tumor implantation, L1210 mice. As to the method: The antineoplastic activity of each of the compounds of Examples 1-6 was assessed by measuring their effects on the survival time of mice bearing the L1210 leukemia by the method generally disclosed in Shyam et al. J. Med. Chem. (1990) 33:2259-2264. The compounds were administered once daily for six consecutive days. Percent change in body weight from onset to termination of therapy was recorded. The results are summarized in Table I. All of the compounds tested produced at least partial 60-day "cures" of mice bearing the L1210 leukemia. […] This compound also produced 80-90% "cures" at 10 and 15 mg/kg×6.
Effects of 2-Acyl-1,2-bis(methylsulfonyl)-1-
^a Administered once daily for six consecutive days, beginning 24 h
after tumor implantation, with 5-10 mice being used per group.
^b Average day of death for untreated tumorbearing mice was 8.4.
^c Average percent change in body weight from onset to termination of
therapy. Average percent change in body weight for vehicletreated control
^d % T/C = average survival time of treated/control mice × 100;
60day survivors are listed separately and are not included in this

The nature of the next data set: Water solubility. It is filed as physicochemical.
A short description of data set [2]: Hydrolysis in the presence of serum from different sources (mouse, bovine, man). It is filed as in vitro ADME. The settings on record: bovine and man, in all cases. From the text:
(§1) To verify that the prodrugs would be converted to alkylating species in vivo, we performed studies on the kinetics of hydrolysis of these compounds in the presence of serum and also in the presence of proteinase K (a protease of low specificity). […] Serum from different sources, i.e., mouse, bovine and man, were not equivalent in their activities or in their rank order of substrate specificity. […] Table IV reports the effects of bovine serum concentrates on hydrolysis of two compounds--the compounds of Example 1 and Example 6.

The nature of data set [3]: Hydrolysis in the presence of bovine serum. It is filed as in vitro ADME. As to conditions: 200 μM solution.
Excerpt: as §1
Effects of Bovine Serum Concentration on the
^a Expressed nmol/ml/min for a 200 μM solution.

Regarding `CN(N(S(C)(=O)=O)S(C)(=O)=O)S(C)(=O)=O` [1-Methyl-1,2,2-tris(methylsulfonyl)hydrazine], in data set [1], the “antineoplastic activity (in words)” value is “also showed antineoplastic activity” and the “toxicity (in words)” value is “relatively less toxic”.

With `CCC(=O)N(N(CCCl)S(C)(=O)=O)S(C)(=O)=O` [Example 2, 1,2-Bis(methylsulfonyl)-1-(2-chloroethyl)-2-propionylhydrazine], the “"cures" of mice bearing the L1210 leukemia” value in the data set on L1210 leukemia (5 mg/kg×6) turned out to be 60%. Also, the “"cures" of mice bearing the L1210 leukemia” value with L1210 leukemia (10 and 15 mg/kg×6) is given as 80-90%. In the data set on L1210 leukemia, the “antineoplastic activity / curative effect (in words)” value was “appeared to be the most potent; also recorded: produced their curative effects at relatively low dosage levels”, the “% 60-day survivors” value stood at 90%, the “% T/C (average survival time of treated/control mice × 100)” value turned out to be 217% and the “AvΔ wt % (average percent change in body weight from onset to termination of therapy)” value is -6.4%. The “Opt. effective daily dose” value in the data set on L1210 leukemia is reported as 10 mg/kg. For the same molecule, the “water solubility (in words)” value in the data set “Water solubility” is on record as “most water-soluble analogs of this class”.

As for `CCCC(=O)N(N(CCCl)S(C)(=O)=O)S(C)(=O)=O` [Example 3, 1,2-Bis(methylsulfonyl)-1-(n-butyryl)-2-(2-chloroethyl)hydrazine], in the data set with L1210 leukemia, the “% 60-day survivors” value was found to be 20%, the “% T/C (average survival time of treated/control mice × 100)” value was 207%, the “AvΔ wt % (average percent change in body weight from onset to termination of therapy)” value stood at 0.0% and the “Opt. effective daily dose” value is recorded as 10 mg/kg.

Consider `CC(C)(C)C(=O)N(N(CCCl)S(C)(=O)=O)S(C)(=O)=O` [Example 4, 1,2-Bis(methylsulfonyl)-1-(2-chloroethyl)-2-pivaloylhydrazine], for which, in the data set on L1210 leukemia, the “% 60-day survivors” value was 60%, the “% T/C (average survival time of treated/control mice × 100)” value was 302%, the “AvΔ wt % (average percent change in body weight from onset to termination of therapy)” value stood at 0.0% and the “Opt. effective daily dose” value came out at 20 mg/kg.

Take `COCC(=O)N(N(CCCl)S(C)(=O)=O)S(C)(=O)=O` [Example 5, 1,2-Bis(methylsulfonyl)-1-(2-chloroethyl)-2-methoxyacetylhydrazine]: in data set [2], the “sensitivity to serum hydrolysis (in words)” value was “two most sensitive compounds”. Further, in the data set on L1210 leukemia (10 mg/kg×6), the “"cures" of tumor-bearing mice” value is recorded as 100%. In the data set on L1210 leukemia, the “antineoplastic activity / curative effect (in words)” value was “produced their curative effects at relatively low dosage levels”, the “% 60-day survivors” value stood at 100%, the “AvΔ wt % (average percent change in body weight from onset to termination of therapy)” value was -8.4% and the “Opt. effective daily dose” value is reported as 10 mg/kg. Moreover, the lethality entry in the data set on L1210 leukemia (higher dose levels examined (above 10 mg/kg×6)) was “lethal at the higher dose levels examined”. Moreover, in “Water solubility”, the “water solubility (in words)” value is “most water-soluble analogs of this class”.

For the molecule `CS(=O)(=O)N(CCCl)N(C(=O)c1ccccc1)S(C)(=O)=O` [Example 6, 1-Benzoyl-1,2-bis(methylsulfonyl)-2-(2-chloroethyl)hydrazine], the Rate of hydrolysis in data set [3] (0% v/v bovine serum) turned out to be 0.06 nmol/mL/min. Moreover, the Rate of hydrolysis in data set [3] (5% v/v bovine serum) is 0.22 nmol/mL/min. Further, in data set [3] (10% v/v bovine serum), the Rate of hydrolysis was 0.52 nmol/mL/min. In addition, in data set [3] (20% v/v bovine serum), the Rate of hydrolysis is 1.31 nmol/mL/min. Also, the “sensitivity to serum hydrolysis (in words)” value in data set [2] is given as “two most sensitive compounds”. For the same molecule, in the data set with L1210 leukemia, the “% 60-day survivors” value is 20%, the “% T/C (average survival time of treated/control mice × 100)” value was 160%, the “AvΔ wt % (average percent change in body weight from onset to termination of therapy)” value was -7.7% and the “Opt. effective daily dose” value is on record as 20 mg/kg.

As to `CS(=O)(=O)N(CCCl)N(S(C)(=O)=O)S(C)(=O)=O` [PRIOR ART, 1-(2-chloroethyl)-1,2,2-tris(methylsulfonyl)hydrazine, reference compound], the “antineoplastic activity (in words)” value in data set [1] was “displays potent antineoplastic activity”. For the same molecule, in the data set with L1210 leukemia, the “% 60-day survivors” value is 100%, the “AvΔ wt % (average percent change in body weight from onset to termination of therapy)” value is -7.2% and the “Opt. effective daily dose” value came out at 60 mg/kg.
